This test concerns the target T1, Human SSAO (Homo sapiens, UniProt Q16853).
T1 construct: Human or mice adipose tissue homogenates, used as a source of SSAO activity; from tissue; host or cells: human adipose tissue homogenate
T1 sequence (Q16853 1-763): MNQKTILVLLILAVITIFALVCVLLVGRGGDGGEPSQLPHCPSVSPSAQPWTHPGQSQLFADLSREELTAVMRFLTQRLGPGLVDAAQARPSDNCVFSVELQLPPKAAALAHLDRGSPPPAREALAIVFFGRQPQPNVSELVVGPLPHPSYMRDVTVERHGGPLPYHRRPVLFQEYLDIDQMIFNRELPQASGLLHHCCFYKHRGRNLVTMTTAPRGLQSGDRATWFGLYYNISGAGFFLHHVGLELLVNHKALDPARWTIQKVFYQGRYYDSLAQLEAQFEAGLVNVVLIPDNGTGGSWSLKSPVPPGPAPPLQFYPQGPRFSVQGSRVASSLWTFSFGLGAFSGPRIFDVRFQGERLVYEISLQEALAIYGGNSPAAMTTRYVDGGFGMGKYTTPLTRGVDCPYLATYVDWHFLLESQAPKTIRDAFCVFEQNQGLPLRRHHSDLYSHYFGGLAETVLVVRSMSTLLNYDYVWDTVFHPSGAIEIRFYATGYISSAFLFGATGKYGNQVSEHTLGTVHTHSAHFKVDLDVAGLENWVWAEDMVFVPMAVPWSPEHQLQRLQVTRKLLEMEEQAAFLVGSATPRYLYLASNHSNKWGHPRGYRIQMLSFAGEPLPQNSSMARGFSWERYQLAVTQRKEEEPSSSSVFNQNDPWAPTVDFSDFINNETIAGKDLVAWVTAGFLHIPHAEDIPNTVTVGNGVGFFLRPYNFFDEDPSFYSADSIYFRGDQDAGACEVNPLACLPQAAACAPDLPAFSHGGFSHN
Briefly: SSAO activity determination (Amplex Red/HRP detection of H2O2 from benzylamine oxidation). The conditions noted are these: human adipose tissue homogenate, benzylamine substrate, 37° C., 20 min preincubation. The class given is biochemical. The procedure:
SSAO activity determination: All assays were performed at 37° C. with SSAO from human or mice adipose tissue. The enzyme activity was measured through detection of hydrogen peroxide formed by the oxidation of benzylamine. This method is based on the horseradish peroxidase catalyzed hydrogen peroxide oxidation of 10-acetyl-3,7-dihydroxyphenoxazine (Molecular Probes A-6550), that produces resorufin a highly fluorescent product (excitation, 545 nm; emission, 590 nm) (Zhou and Panchuk-Voloshina, 1997). Human or mice adipose tissue homogenates, used as a source of SSAO activity, were preincubated in 96 well microplates for 20 min at 37° C. in 180 μL of 200 mM Phosphate buffer and H2O2-detecting mixture containing horseradish peroxidase (final concentration 1 U/mL) and Amplex Red reagent (60 μM) and different concentrations of inhibitors when necessary. […] Fluorescence intensity of the samples was measured continuously during 1 h (excitation, 545 nm; emission, 590 nm) and H2O2 concentration was calculated from calibration curves generated by serial dilutions of standard H2O2. […]
The inhibition was measured as % decrease of the signal compared to a control without inhibitor. Blank values in absence of substrates were subtracted from the fluorescence for each experimental condition. The IC50 shown in Table 1 were calculated with GraphPad Prism 4 program.

Among the data in patent US20080269282A1, “Compounds for Inhibiting Copper-Containing Amine Oxidases and Uses Thereof” (GENMEDICA THERAPEUTICS SL, priority 2004, published 2008) are IC50 values, retold here.

As a reminder, the IC50 is the concentration that inhibits the measured activity by half. Read a low IC50 as inhibition by little substance. `Cc1[nH]c2ccccc2c1CC(=O)NCC(=O)NO` [compound 4]: the half-maximal inhibitory concentration (IC50) worked out at 0.033 ± 0.006 µM.
